Experiments:
breast cancer receptors = target: T1, breast cancer receptors (Homo sapiens, UniProt P30968); test: Receptor binding potency, breast cancer receptors
T1 construct: from tissue
T1 sequence (P30968 1-328): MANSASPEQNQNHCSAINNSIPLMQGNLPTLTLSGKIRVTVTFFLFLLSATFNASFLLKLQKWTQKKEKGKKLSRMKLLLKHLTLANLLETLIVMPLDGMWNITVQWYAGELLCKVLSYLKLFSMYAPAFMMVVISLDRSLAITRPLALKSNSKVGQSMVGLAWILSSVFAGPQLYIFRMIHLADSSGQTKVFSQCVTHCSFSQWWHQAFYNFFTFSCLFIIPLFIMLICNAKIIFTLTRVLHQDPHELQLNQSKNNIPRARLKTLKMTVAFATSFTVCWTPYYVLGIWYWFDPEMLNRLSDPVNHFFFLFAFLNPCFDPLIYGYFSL

[1] = system: estrogen independent MXT mouse mammary cancers; test: Single treatment of estrogen independent MXT mouse mammary cancers (KS-55); format: in vivo; settings: single dose of 650 nmol/20 g mouse (as printed in text)
Method: In order to determine the maximum tolerated doses and compare the effects, MXT (3.2) ovex tumor pieces (1 mm^3) were implanted s.c. in female B6 D2 F1 mice. One day after transplantation the mice were randomly divided into groups of five animals and they were treated with a single injection i.p. The groups and doses are shown in the Table 25-1. […] The compounds were dissolved in 0.1% TFA (pH: 2.0). Tumor volume was measured on days 10, 13, 17, and 20.

rat pituitary receptors = target: T2, rat pituitary receptors (Rattus norvegicus, UniProt P30969); test: Receptor binding potency, rat pituitary receptors
T2 construct: from tissue; host or cells: rat pituitary
T2 sequence (P30969 1-327): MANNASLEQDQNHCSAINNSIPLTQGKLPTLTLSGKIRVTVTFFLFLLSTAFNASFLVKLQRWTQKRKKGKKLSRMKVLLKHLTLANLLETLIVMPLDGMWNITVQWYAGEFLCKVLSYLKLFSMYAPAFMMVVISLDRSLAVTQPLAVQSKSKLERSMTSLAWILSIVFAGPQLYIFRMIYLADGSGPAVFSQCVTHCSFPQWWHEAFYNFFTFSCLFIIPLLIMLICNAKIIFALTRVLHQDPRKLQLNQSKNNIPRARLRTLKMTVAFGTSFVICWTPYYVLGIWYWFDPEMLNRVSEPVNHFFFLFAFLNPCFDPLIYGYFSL

[2] = target: T3, bombesin receptors on Swiss 3T3 cell line (Mus musculus, UniProt P21729); test: Displacement of [125I-Tyr4]BN binding on Swiss 3T3 cells
T3 construct: host or cells: Swiss 3T3 cells
Method: Radio iodination of [Tyr^4 ]BN (Sigma) using a Bio-Rad Enzymobead Radio lodination kit and isolation of mono-iodinated [^125 l-Tyr^4 ]BN was performed as described earlier (1). […] Three to five days after seeding, the confluent cells were washed twice with Hanks' Balanced Salt Solution (HBSS) and incubated for 30 min at 37° C. with 50 pM [^125 l-Tyr^4 ]BN in the absence or presence of several concentrations of unlabeled competitors (Q6^14 gB or BN) in a total volume of 0.5 ml binding buffer (DMEM with 50 mM HEPES, 0.1% bovine serum albumin (BSA), 5 mM MgCl2 and 100 μg/ml bacitracin, pH: 7.4). Nonspecific binding was determined in the presence of 1 μM unlabeled ligand. After three washings with ice-cold HBSS containing 0.1% BSA (pH: 7.4) the cells were detached with 0.05% Trypsin/0.53 mM EDTA solution and transferred to tubes. Radioactivity was measured with a gamma-counter (Micromedic Systems Inc, Huntsville, Ala.). Binding data were evaluated using radio ligand binding analysis programs by McPherson (4). Ki values presented in Table 23-1, were calculated according to the formula of Cheng and Prusoff (5).

[3] = system: estrogen independent MXT mouse mammary cancers; test: Effect of cytotoxic LH-RH analogs on estrogen independent MXT mouse mammary cancers (KS-47); format: in vivo; settings: daily dose of 30 nmol (equimolar) i.p. for 12 days
Method: MXT (3.2) ovex tumor pieces (1 mm^3) were transplanted in female B6 D2 F1 mice. The treatment started one day after transplantation and was continued for 12 days by i.p. injections once a day. Tumors were measured on days 10, 14 and 18, and tumor volume was calculated.

LH-responses = test: Hormonal activity of LH-RH analogs (LH-responses rel. to LH-RH); format: cell-based; settings: relative to LH-RH = 1

T3 sequence (P21729 whole entry): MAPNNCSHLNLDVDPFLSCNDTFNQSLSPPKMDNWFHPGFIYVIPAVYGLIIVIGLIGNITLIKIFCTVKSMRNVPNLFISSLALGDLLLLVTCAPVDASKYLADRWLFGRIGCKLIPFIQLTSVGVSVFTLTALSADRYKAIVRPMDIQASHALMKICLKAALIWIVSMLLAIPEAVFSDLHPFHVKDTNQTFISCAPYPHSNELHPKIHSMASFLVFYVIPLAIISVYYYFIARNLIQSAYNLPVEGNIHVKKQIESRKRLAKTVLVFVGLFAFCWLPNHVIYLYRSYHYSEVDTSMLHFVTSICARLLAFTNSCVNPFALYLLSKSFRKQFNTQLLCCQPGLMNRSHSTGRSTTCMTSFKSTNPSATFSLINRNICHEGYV

Q: How did the IC50 (breast cancer receptors) turn out when `COc1cccc2c1C(=O)c1c(O)c3c(c(O)c1C2=O)C[C@@](O)(C(=O)COC(=O)CCCC(=O)NCCCC[C@@H](NC(=O)[C@H](Cc1ccc(O)cc1)NC(=O)[C@H](CO)NC(=O)[C@H](Cc1c[nH]c2ccccc12)NC(=O)[C@H](Cc1c[nH]cn1)NC(=O)[C@@H]1CCC(=O)N1)C(=O)N[C@@H](CC(C)C)C(=O)N[C@@H](CCCNC(=N)N)C(=O)N1CCC[C@H]1C(=O)NCC(N)=O)C[C@@H]3O[C@H]1C[C@H](N)[C@H](O)[C@H](C)O1` [Q1^14 gL, [D-Lys^6 (DOX^14 -O-glt)]LH-RH] was run?
A: 7.24 nM

Q: What about the Toxicity [1] of the same molecule?
A: nontoxic

Q: What about the IC50 (rat pituitary receptors) of the same molecule?
A: 2.29 nM

Q: For `COc1cccc2c1C(=O)c1c(O)c3c(c(O)c1C2=O)C[C@@](O)(C(=O)COC(=O)CCCC(=O)N[C@@H](CCC(N)=O)C(=O)N[C@@H](Cc1c[nH]c2ccccc12)C(=O)N[C@@H](C)C(=O)N[C@H](C(=O)NCC(=O)N[C@@H](Cc1c[nH]cn1)C(=O)N[C@H](CN[C@@H](CC(C)C)C(N)=O)CC(C)C)C(C)C)C[C@@H]3O[C@H]1C[C@H](N2C=CCC2)[C@H](O)[C@H](C)O1` [Q6^14 gB, 2-pyrrolino-DOX^14 -O-glt-Gln-Trp-Ala-Val-Gly-His-Leu.PSI.(CH2 --NH)Leu-NH2], which Ki [2] is on record?
A: 1 nM

Q: `CC(C)C[C@H](NC(=O)[C@@H](CCCCN)NC(=O)[C@H](Cc1ccc(O)cc1)NC(=O)[C@H](CO)NC(=O)[C@H](Cc1c[nH]c2ccccc12)NC(=O)[C@H](Cc1c[nH]cn1)NC(=O)[C@@H]1CCC(=O)N1)C(=O)N[C@@H](CCCNC(=N)N)C(=O)N1CCC[C@H]1C(=O)NCC(N)=O` [[D-Lys^6]LH-RH] was tested. Which “Effect on tumor growth” value [3] did it give?
A: did not affect tumor growth

Q: What about the “Mean survival after transplantation” value [3] of the same molecule?
A: 23.5 days

Q: And the “Mean tumor volume on day 10” value [3]?
A: 165 mm^3

Q: What about the “Mean tumor volume on day 14” value [3] of the same molecule?
A: 1348 mm^3

Q: What about the “Mean tumor volume on day 18” value [3] of the same molecule?
A: 4003 mm^3

Q: And the IC50 (breast cancer receptors)?
A: 1.8 nM

Q: And the “Hormonal activity (LH-responses rel. to LH-RH = 1)” value (LH-responses)?
A: 8

Q: Which results are given for `COc1cccc2c1C(=O)c1c(O)c3c(c(O)c1C2=O)C[C@@](O)(C(=O)COC(=O)CCCC(=O)NCCCC[C@@H](NC(=O)[C@H](Cc1ccc(O)cc1)NC(=O)[C@H](CO)NC(=O)[C@H](Cc1c[nH]c2ccccc12)NC(=O)[C@H](Cc1c[nH]cn1)NC(=O)[C@@H]1CCC(=O)N1)C(=O)N[C@@H](CC(C)C)C(=O)N[C@@H](CCCNC(=N)N)C(=O)N1CCC[C@H]1C(=O)NCC(N)=O)C[C@@H]3O[C@H]1C[C@H](N2C=CCC2)[C@H](O)[C@H](C)O1` [Q6^14 gL, [D-Lys^6 (2-pyrrolino-DOX^14 -O-glt)]LH-RH]?
A: IC50 (breast cancer receptors): 6.7 nM; IC50 (rat pituitary receptors): 5.59 nM

From patent publication US6184374A, “Targeted cytotoxic anthracycline analogs” (priority 1998, dated 2001)
